According to US6391897B2, “Biphenyl oxo-acetic acids useful in the treatment of insulin resistance and hyperglycemia” (American Home Products Corporation, priority 1998, dated 2002):
Where two headings read alike, the source gives them in different places.

Legend:
diabetic (ob/ob) mice = test: Blood glucose lowering in diabetic (ob/ob) mice; assay type: in vivo; details: Mus musculus, po
Human recombinant PTP1B = target: T1, Human recombinant PTP1B (Homo sapiens, UniProt P18031); test: Inhibition of tri-phosphorylated insulin receptor dodecaphosphopeptide dephosphorylation by hPTP1B (malachite green); assay type: biochemical; details: compound at 2.5 uM
T1 construct: made in house
T1 sequence (P18031 1-435): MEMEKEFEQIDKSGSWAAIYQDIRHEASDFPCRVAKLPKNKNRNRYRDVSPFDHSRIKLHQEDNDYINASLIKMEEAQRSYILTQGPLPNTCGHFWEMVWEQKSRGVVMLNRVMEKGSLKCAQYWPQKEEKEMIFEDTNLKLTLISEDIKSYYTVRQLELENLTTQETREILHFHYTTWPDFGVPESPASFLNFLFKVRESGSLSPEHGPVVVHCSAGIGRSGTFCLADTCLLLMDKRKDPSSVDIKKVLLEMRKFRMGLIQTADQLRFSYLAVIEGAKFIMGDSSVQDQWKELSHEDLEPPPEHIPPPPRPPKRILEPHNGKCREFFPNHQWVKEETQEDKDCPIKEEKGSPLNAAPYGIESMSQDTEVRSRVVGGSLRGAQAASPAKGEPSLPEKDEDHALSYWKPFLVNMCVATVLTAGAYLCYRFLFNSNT

[1] = read-out: % Change Insulin from Vehicle

Row | Compound | change in vivo at 100 mg/kg (diabetic (ob/ob) mice; 96 h, plasma glucose on Day 4, 7 or 14, read-out: % Change Glucose from Vehicle) [%] | change in vivo at 100 mg/kg (diabetic (ob/ob) mice; [1]) [%] | percent of phosphatase control (change) at 2.5 uM (Human recombinant PTP1B)
1 | CC1(COc2ccc(CC3SC(=O)NC3=O)cc2)CCCCC1 (centres unmarked) [Ciglitazone, 5-(4-(1-methylcyclohexylmethoxy)benzyl)-2,4-dione] | -43 | -39 | –
2 | O=C(O)COc1ccc(-c2ccc(-c3c(Br)oc4ccccc34)cc2)cc1 [Example 6, [4′-(2-Bromo-benzofuran-3-yl)-biphenyl-4-yloxy]-acetic acid] | – | – | −15 (2.5 uM) %
3 | O=C(O)C(Cc1ccccc1)Oc1ccc(-c2ccc(-c3c(Br)oc4ccccc34)cc2)cc1 (centres unmarked) [Example 7, 2-[4′-(2-Bromo-benzofuran-3-yl)-biphenyl-4-yloxy]-3-phenyl-propionic acid] | – | – | −58 (2.5 uM) %
4 | O=C(c1ccccc1)c1oc2ccccc2c1-c1ccc(-c2ccc(OC(Cc3ccccc3)C(=O)O)cc2)cc1 (centres unmarked) [Example 14, 2-[4′-(2-Benzoyl-benzofuran-3-yl)-biphenyl-4-yloxy]-3-phenyl-propionic acid] | – | 19.8 | –
5 | COC(=O)[C@H](Cc1ccccc1)Oc1ccc(-c2ccc(-c3c(Cc4ccccc4)oc4ccccc34)cc2)cc1 [Example 23, (2S)-2-[4′-(2-Benzyl-benzofuran-3-yl)-biphenyl-4-yloxy]-3-phenyl-propionic acid methyl ester] | – | – | −36 (2.5 uM) %
6 | O=C(O)[C@H](Cc1ccccc1)Oc1ccc(-c2ccc(-c3nc4ccccc4n3Cc3ccccc3)cc2)cc1 [Example 70, (2S)-2-[4′-(1-Benzyl-1H-benzimidazol-2-yl)-biphenyl-4-yloxy]-3-phenyl-propionic acid] | – | – | −41 (2.5 uM) %
7 | CC(=O)c1ccc(-c2ccc(-c3ccc(O[C@@H](Cc4ccccc4)C(=O)[O-])cc3)cc2)s1.[Na+] [Example 71, (2S)-2-[4′-(5-acetyl-thiophen-2-yl)-biphenyl-4-yloxy]-3-phenyl-propionic acid sodium salt] | – | – | −43 (2.5 uM) %
